Reference: ChEMBL document CHEMBL3885861, “Open TG-GATES”

Species on record: Rattus norvegicus
Test: Open TG-GATES - Regimen: Single
Type: toxicity, organism-based, Sprague-Dawley
Design: regimen Single, gender Male, age 6 weeks
Details: in vivo, po, route gavage; for Hb / Ht / Lym / MCH / MCHC / MCV / Mono / Neu / PT / Plat / RBC / Ret / WBC / APTT / Bas / Eos / Fbg: tissue Blood; for KIDNEY_L / KIDNEY_R / KIDNEY_TOTAL: tissue Kidney; for LIVER: tissue Liver; for A/G / ALP / ALT / AST / BUN / CRE / Ca / Cl / DBIL / GLC / IP / K / LDH / Na / PL / RALB / TBIL / TC / TG / TP / gamma-GTP: tissue Plasma
[1] = 15 mg/kg, 6 h, dose level Middle
[2] = 15 mg/kg, 9 h, dose level Middle
[3] = 15 mg/kg, 24 h, dose level Middle

**Q.** Which results are given for `COc1ccc2c(c1)c(CC(=O)O)c(C)n2C(=O)c1ccc(Cl)cc1` [INDOMETHACIN]?
**A.** Hb [1]: 14 g/dL; Ht [1]: 38.4%; Lym [1]: 71.4%; MCH [1]: 22.9 pg; MCHC [1]: 36.6%; MCV [1]: 62.7 fL; Mono [1]: 3.4%; Neu [1]: 22.8%; PT [1]: 12.2 s; Plat [1]: 116.9 x10_4/uL; RBC [1]: 613.2 x10_4/ul; Ret [1]: 7.8%; WBC [1]: 112.3 x10_2/uL; KIDNEY_L [1]: 1 g; KIDNEY_R [1]: 1 g; KIDNEY_TOTAL [1]: 2 g; LIVER [1]: 9.3 g; A/G [1]: 1.6; ALP [1]: 853.6 IU/L; ALT [1]: 39.6 IU/L; AST [1]: 70 IU/L; BUN [1]: 12.8 mg/dL; CRE [1]: 0.4 mg/dL; Ca [1]: 10.5 mg/dL; Cl [1]: 103.4 meq/L; DBIL [1]: 0.074 mg/dL; GLC [1]: 200.2 mg/dL; IP [1]: 9.5 mg/dL; K [1]: 4.1 meq/L; LDH [1]: 204.8 IU/L; Na [1]: 140.8 meq/L; PL [1]: 135.6 mg/dL; RALB [1]: 3.2 g/dL; TBIL [1]: 0.1 mg/dL; TC [1]: 74.4 mg/dL; TG [1]: 66.6 mg/dL; TP [1]: 5.3 g/dL; gamma-GTP [1]: 1.2 IU/L; TERMINAL_BW [2]: 220.7 g; APTT [2]: 18 s; Bas [2]: 0%; Eos [2]: 0.4%; Fbg [2]: 217.2 mg/dL; Hb [2]: 13.6 g/dL; Ht [2]: 37.1%; Lym [2]: 69.4%; MCH [2]: 22.4 pg; MCHC [2]: 36.6%; MCV [2]: 61.1 fL; Mono [2]: 3.4%; Neu [2]: 24.8%; PT [2]: 12.5 s; Plat [2]: 119.6 x10_4/uL; RBC [2]: 607 x10_4/ul; Ret [2]: 7.9%; WBC [2]: 101.8 x10_2/uL; KIDNEY_L [2]: 0.9 g; KIDNEY_R [2]: 0.9 g; KIDNEY_TOTAL [2]: 1.9 g; LIVER [2]: 8.7 g; A/G [2]: 1.6; ALP [2]: 719.4 IU/L; ALT [2]: 29.2 IU/L; AST [2]: 63.8 IU/L; BUN [2]: 13 mg/dL; CRE [2]: 0.3 mg/dL; Ca [2]: 10.4 mg/dL; Cl [2]: 104.2 meq/L; DBIL [2]: 0.07 mg/dL; GLC [2]: 186.8 mg/dL; IP [2]: 10 mg/dL; K [2]: 4 meq/L; LDH [2]: 202.2 IU/L; Na [2]: 141.4 meq/L; PL [2]: 125.4 mg/dL; RALB [2]: 3.2 g/dL; TBIL [2]: 0.1 mg/dL; TC [2]: 69.6 mg/dL; TG [2]: 36.8 mg/dL; TP [2]: 5.2 g/dL; gamma-GTP [2]: 1 IU/L; TERMINAL_BW [3]: 227.1 g; APTT [3]: 19.7 s; Bas [3]: 0.2%; Eos [3]: 0.8%; Fbg [3]: 294.2 mg/dL; Hb [3]: 10.8 g/dL; Ht [3]: 31%; Lym [3]: 57.8%; MCH [3]: 21.3 pg; MCHC [3]: 34.9%; MCV [3]: 61.2 fL; Mono [3]: 2.4%; Neu [3]: 37.8%; PT [3]: 12.2 s; Plat [3]: 94.5 x10_4/uL; RBC [3]: 509.2 x10_4/ul; Ret [3]: 7.9%; WBC [3]: 93.5 x10_2/uL; KIDNEY_L [3]: 1 g; KIDNEY_R [3]: 1 g; KIDNEY_TOTAL [3]: 2.1 g; LIVER [3]: 9.5 g; A/G [3]: 1.3; ALP [3]: 547.6 IU/L; ALT [3]: 28 IU/L; AST [3]: 57 IU/L; BUN [3]: 14.4 mg/dL; CRE [3]: 0.4 mg/dL; Ca [3]: 9.8 mg/dL; Cl [3]: 105.4 meq/L; DBIL [3]: 0.06 mg/dL; GLC [3]: 173.2 mg/dL; IP [3]: 9.6 mg/dL; K [3]: 4.2 meq/L; LDH [3]: 180.2 IU/L; Na [3]: 141.2 meq/L; PL [3]: 127 mg/dL; RALB [3]: 2.5 g/dL; TBIL [3]: 0.1 mg/dL; TC [3]: 72.8 mg/dL; TG [3]: 80.8 mg/dL; TP [3]: 4.3 g/dL; gamma-GTP [3]: 1.4 IU/L; TERMINAL_BW (50 mg/kg, 3 h, dose level High): 226 g; APTT (50 mg/kg, 3 h, dose level High): 21.4 s; Bas (50 mg/kg, 3 h, dose level High): 0.2%; Eos (50 mg/kg, 3 h, dose level High): 1%; Fbg (50 mg/kg, 3 h, dose level High): 216.6 mg/dL; Hb (50 mg/kg, 3 h, dose level High): 13.8 g/dL; Ht (50 mg/kg, 3 h, dose level High): 37.8%; Lym (50 mg/kg, 3 h, dose level High): 73.6%; MCH (50 mg/kg, 3 h, dose level High): 22.2 pg; MCHC (50 mg/kg, 3 h, dose level High): 36.4%; MCV (50 mg/kg, 3 h, dose level High): 60.9 fL; Mono (50 mg/kg, 3 h, dose level High): 2.4%; Neu (50 mg/kg, 3 h, dose level High): 22%; PT (50 mg/kg, 3 h, dose level High): 12 s; Plat (50 mg/kg, 3 h, dose level High): 119.2 x10_4/uL; RBC (50 mg/kg, 3 h, dose level High): 621.6 x10_4/ul; Ret (50 mg/kg, 3 h, dose level High): 8.1%; WBC (50 mg/kg, 3 h, dose level High): 114.1 x10_2/uL; KIDNEY_L (50 mg/kg, 3 h, dose level High): 0.9 g; KIDNEY_R (50 mg/kg, 3 h, dose level High): 0.9 g; KIDNEY_TOTAL (50 mg/kg, 3 h, dose level High): 1.9 g; LIVER (50 mg/kg, 3 h, dose level High): 9.8 g; A/G (50 mg/kg, 3 h, dose level High): 1.6; ALP (50 mg/kg, 3 h, dose level High): 971 IU/L
